Values of other authors as cited in Sander's compilation of Henry's law constants (doi:10.1021/es8005783).

test: Henry solubility constant Hcp at 298.15 K (mol/(m3 Pa)); settings: reference: Hilal et al. (2008); cited value

Compound | Henry solubility constant Hcp
FC(F)(F)C(F)(Cl)Cl [1,1-dichlorotetrafluoroethane] | 7.5e-06
ClC=CCCl [1,3-dichloropropene] | 0.0058
C1=CCC=CC1 [1,4-cyclohexadiene] | 0.001
ClC1=C(Cl)[C@]2(Cl)[C@H]3[C@H]([C@@H]4C=C[C@H]3C4)[C@@]1(Cl)C2(Cl)Cl [aldrin] | 0.02
Cc1c(COC(=O)[C@@H]2[C@H](/C=C(\Cl)C(F)(F)F)C2(C)C)cccc1-c1ccccc1 [bifenthrin] | 9.9
ClC(Cl)Br [bromodichloromethane] | 0.0077
FC(F)(F)Cl [chlorotrifluoromethane] | 7.2e-06
FC(F)(Cl)Cl [dichlorodifluoromethane] | 3.6e-05
ClC1=C(Cl)[C@]2(Cl)[C@@H]3[C@@H]4C[C@@H]([C@H]5O[C@@H]45)[C@@H]3[C@@]1(Cl)C2(Cl)Cl [dieldrin] | 0.17
ClC1=C(Cl)C2(Cl)C3C4OC4C(Cl)C3C1(Cl)C2(Cl)Cl (stereo not drawn) [heptachlorepoxide] | 0.54
ClC(Cl)=C(Cl)C(Cl)=C(Cl)Cl [hexachlorobutadiene] | 0.00097
O=[N+]([O-])c1ccccc1 [nitrobenzene] | 0.42
BrC(Br)(Br)Br [tetrabromomethane] | 0.02

Other lines, results leading:

Henry solubility constant Hcp | Compound
0.0012 | CCc1ccccc1CC [1,2-diethylbenzene]
0.0038 | CCc1cccc(CC)c1 [1,3-diethylbenzene]
11 | COCC(C)O (stereo not drawn) [1-methoxy-2-propanol]
0.065 | CCC(C)N (stereo not drawn) [2-butanamine]
0.72 | CC(C)CN [2-methyl-1-propanamine]
0.016 | C=C(C)C(=O)OCC [2-methyl-2-propenoic acid, ethyl ester]
6.2e-06 | CCCC(C)C [2-methylpentane]
0.22 | CC(C)N [2-propanamine]
0.026 | CCCN(CCC)CCC [N,N-dipropyl-1-propanamine]
6.9 | CCCCCCCCC(=O)O [nonanoic acid]
